Assay results taken from paper PMC7960626, “Phase I study assessing the mass balance, pharmacokinetics, and excretion of [^14C]-pevonedistat, a NEDD8-activating enzyme inhibitor in patients with advanced solid tumors” (Investigational New Drugs, 2020).
Like-named read-outs stand apart in the source and are kept apart here. Marks after values point to notes of the source that are not given here.

Columns and labels:
[1] = system: human colon and lung tumor xenograft models; design: method as in PMID 19509147; conditions: repeated dosing, immunocompromised mice; cited from earlier work
[2] = Whole blood PK and whole blood/plasma partitioning after a single 1-h IV infusion of [^14C]-pevonedistat 25 mg/m^2 (part A); format: in vivo, human; conditions: for blood plasma ratio: whole blood and plasma, iv, 25 mg/m^2, single 1-h IV infusion 25 mg/m^2
Text: This was a two-part (A and B), open-label, multicenter, mass balance, distribution, metabolism, excretion (DME) study in adult patients with advanced solid tumors. […] Patients were required to stay at the part A study site for approximately 8 days or until the discharge criteria were met, with a maximum estimated confinement period of 9–14 days. Upon completion of part A, patients had the option to participate in part B at Medical Center Hungarian Defense Forces, Budapest, Hungary. […] Treatment was administered for 12 cycles or until discontinuation criteria were met.
Complete urinary and fecal output were collected for analysis of PK (urine) and total radioactivity (urine and feces) throughout the confinement period until discharge criteria were met. Bioanalytical assay methods are shown in the Supplementary Methods. […] In part B, disease assessments were conducted using radiological evaluations (computed tomography [CT] scan or magnetic resonance imaging [MRI], as clinically indicated).
Non-compartmental analysis using Phoenix™ WinNonlin® version 8.0 (Pharsight Corp., Mountain View, California, USA) was used for estimation of PK parameters for pevonedistat in whole blood, plasma, and urine and for total radioactivity in whole blood, plasma, urine, and feces. The following single-dose PK parameters were derived: maximum plasma concentration (Cmax), area under the concentration–time curve from time 0 to infinity (AUC∞), AUC from time 0 to the last quantifiable concentration (AUC0 − last), terminal disposition phase half-life (t1/2), renal clearance (CLR), clearance (CL), and volume of distribution at steady state (Vss).
PK data were summarized using descriptive statistics, and the PK and mass balance parameters described in Supplementary Table S1 were calculated by non-compartmental analysis for each individual patient. Safety was assessed in all patients who received at least one dose of pevonedistat, and TEAEs were coded according to the Medical Dictionary for Regulatory Activities (MedDRA), version 20.0. Analysis of efficacy in part B was descriptive; disease response was assessed in all patients who received at least one dose of pevonedistat, had measurable disease (per entry criteria for part B), and had at least one post-baseline disease assessment. Response assessment was done by the investigator using Response Evaluation Criteria in Solid Tumors (RECIST) version 1.1. SAS version 9.4 was used for all statistical analyses. […]
160 All samples were analyzed applying the methods described below:
After vortex mixing for at least 5 sec, the
170 Method for whole blood

[3] = Safety (TEAEs, NCI CTCAE v4.03) after single dose of [^14C]-pevonedistat (part A); format: in vivo, human; conditions: for On-study deaths, patients: part A, N = 8
Procedure: This was a two-part (A and B), open-label, multicenter, mass balance, distribution, metabolism, excretion (DME) study in adult patients with advanced solid tumors. In part A, patients received a single IV infusion of [^14C]-pevonedistat 25 mg/m^2 (containing approximately 60–85 µCi, or 2.22–3.145 MBq, of total radioactivity) at a single center (Duna Medical Center, Budapest, Hungary). Patients were required to stay at the part A study site for approximately 8 days or until the discharge criteria were met, with a maximum estimated confinement period of 9–14 days. Upon completion of part A, patients had the option to participate in part B at Medical Center Hungarian Defense Forces, Budapest, Hungary. In part B, patients received treatment in 3-week cycles with either: pevonedistat 20 mg/m^2 on days 1, 3, and 5 plus carboplatin AUC5 and paclitaxel 175 mg/m^2 on day 1; or pevonedistat 25 mg/m^2 on days 1, 3, and 5 plus docetaxel 75 mg/m^2 on day 1. Treatment was administered for 12 cycles or until discontinuation criteria were met.
Blood samples were collected for total radioactivity and PK assessments in whole blood and plasma at prespecified time points (pre dose [within 1 h before the start of the pevonedistat infusion], end of infusion, then 0.5, 1, 2, 3, 4, 8, 12, 24, 48, 72, 96, 120, 144 and 168 hours post dose). Complete urinary and fecal output were collected for analysis of PK (urine) and total radioactivity (urine and feces) throughout the confinement period until discharge criteria were met. Bioanalytical assay methods are shown in the Supplementary Methods. Safety was assessed by incidence and severity of TEAEs, vital signs, physical examinations, electrocardiograms, and clinical laboratory tests, and toxicities were graded according to the National Cancer Institute Common Terminology Criteria for Adverse Events (NCI CTCAE), version 4.03. In part B, disease assessments were conducted using radiological evaluations (computed tomography [CT] scan or magnetic resonance imaging [MRI], as clinically indicated).
PK data were summarized using descriptive statistics, and the PK and mass balance parameters described in Supplementary Table S1 were calculated by non-compartmental analysis for each individual patient. Safety was assessed in all patients who received at least one dose of pevonedistat, and TEAEs were coded according to the Medical Dictionary for Regulatory Activities (MedDRA), version 20.0. Analysis of efficacy in part B was descriptive; disease response was assessed in all patients who received at least one dose of pevonedistat, had measurable disease (per entry criteria for part B), and had at least one post-baseline disease assessment. Response assessment was done by the investigator using Response Evaluation Criteria in Solid Tumors (RECIST) version 1.1. SAS version 9.4 was used for all statistical analyses.

[4] = system: human xenograft tumors of activated B-cell (ABC) and germinal center B-cell (GCB) diffuse large B-cell lymphoma (DLBCL); design: method as in PMID 20525923; conditions: in vivo administration, mice; cited from earlier work
[5] = cited from earlier work
[6] = system: acute myeloid leukemia (AML) xenograft models; design: method as in PMID 20203261; conditions: mice; cited from earlier work
[7] = human, whole blood, single 1-hr IV infusion 25 mg/m^2, geometric mean (CV), N = 7

NS(=O)(=O)OC[C@@H]1C[C@@H](n2ccc3c(N[C@H]4CCc5ccccc54)ncnc32)C[C@@H]1O [Pevonedistat]
tumor growth [1]: tumor growth inhibition | clearance classification ([2]; based on whole blood CL vs hepatic blood flow): low clearance drug | blood plasma ratio ([2]; human, mean (SD), N = 7, read-out: Whole blood/plasma AUClast ratio): 42.2 | blood plasma ratio ([2]; human, mean (SD), N = 7, read-out: Whole blood/plasma AUC∞ ratio): 40.8 | blood plasma ratio ([2]; human, mean (SD), N = 7, read-out: Whole blood/plasma Cmax ratio): 31.9 | AUC(0-inf) [2, 7]: 58600 ng·h/mL | AUC(0-t) [2, 7]: 58500 ng·h/mL | Cmax [2, 7]: 6720 ng/mL | clearance [2, 7]: 13.5 mL/min | Vd ([2]; human, whole blood, single 1-hr IV infusion 25 mg/m^2, geometric mean (CV), N = 7, read-out: Vss): 9.1 L | half-life ([2]; human, whole blood, single 1-hr IV infusion 25 mg/m^2, mean (SD), N = 7): 13.9 h | whole blood CL as share of hepatic blood flow ([2]; single dose 25 mg/m^2): approximately 1% | Exposure ratio (AUC∞) of pevonedistat vs. total drug-related material ([2]; whole blood, single 1-h IV infusion 25 mg/m^2, mean): 0.44 | Back pain, Any grade ([3]; human, in vivo): 1 (12.5) n (%) | Back pain, Grade ≥ 3 ([3]; human, in vivo): 0 n (%) | Constipation, Any grade ([3]; human, in vivo): 1 (12.5) n (%) | Constipation, Grade ≥ 3 ([3]; human, in vivo): 0 n (%) | Dizziness, Any grade ([3]; human, in vivo): 1 (12.5) n (%) | Dizziness, Grade ≥ 3 ([3]; human, in vivo): 0 n (%) | Sarcoma, Any grade ([3]; human, in vivo): 1 (12.5) n (%) | Sarcoma, Grade ≥ 3 ([3]; human, in vivo): 1 (12.5)^a n (%) | Serious TEAEs, patients ([3]; human, in vivo): 1 (12.5) n (%) | Serious TEAEs: Drug-related, patients ([3]; human, in vivo): 0 (0.0) n (%) | Serious TEAEs: Resulting in study discontinuation, patients ([3]; human, in vivo): 0 (0.0) n (%) | TEAEs: Grade ≥ 3, patients ([3]; human, in vivo): 1 (12.5) n (%) | TEAEs: Grade ≥ 3 drug-related, patients ([3]; human, in vivo): 0 (0.0) n (%) | Urinary retention, Any grade ([3]; human, in vivo): 1 (12.5) n (%) | Urinary retention, Grade ≥ 3 ([3]; human, in vivo): 0 n (%) | Vomiting, Any grade ([3]; human, in vivo): 1 (12.5) n (%) | Vomiting, Grade ≥ 3 ([3]; human, in vivo): 0 n (%) | Serious TEAEs, patients ([3]; in vivo): no serious TEAEs | On-study deaths, patients [3]: One | On-study deaths, patients ([3]; listed as [^14C]-pevonedistat): 1 (12.5)^a n (%) | tumor growth [4]: complete tumor growth inhibition | PK linearity ([5]; dose range 25–278 mg/m^2): linear and dose-proportional | elimination half-life in plasma ([5]; patients with metastatic melanoma): approximately 10 hours | mean terminal elimination half-life ([5]; plasma, estimated across doses and schedules, 1-h IV infusion): 5 to 8 h | typical CL ([5]; population PK analysis in more than 300 patients): 31.5 L/h | effect of mild or moderate renal impairment (creatinine clearance 30–89 mL/min) on exposure ([5]; population PK analysis): does not have a clinically meaningful impact on pevonedistat exposures | disease course [6]: durable disease regression
